Source: US10478421B1, “Sortilin binding compounds, formulations, and uses thereof” (University of Florida, priority 2016, dated 2019)
pKd: −log10 of the molar value.

Legend:
McA cells = test: LDH release into medium (viability of McA cells); assay type: cell-based, rat; details: incubation with compound (10 μM cpd984, 18 h)
hsortilin [1] = target: T1, hsortilin (Homo sapiens, UniProt Q99523); test: Surface plasmon resonance on hsortilin immobilized on CM7 chips (Example 2); assay type: binding
T1 construct: Human sortilin (hsortilin) (Ser78-Asn755) with C-terminal 6-His tag; purchased R&D Systems, Inc. (Minneapolis, Minn.)
T1 sequence (Q99523 78-755): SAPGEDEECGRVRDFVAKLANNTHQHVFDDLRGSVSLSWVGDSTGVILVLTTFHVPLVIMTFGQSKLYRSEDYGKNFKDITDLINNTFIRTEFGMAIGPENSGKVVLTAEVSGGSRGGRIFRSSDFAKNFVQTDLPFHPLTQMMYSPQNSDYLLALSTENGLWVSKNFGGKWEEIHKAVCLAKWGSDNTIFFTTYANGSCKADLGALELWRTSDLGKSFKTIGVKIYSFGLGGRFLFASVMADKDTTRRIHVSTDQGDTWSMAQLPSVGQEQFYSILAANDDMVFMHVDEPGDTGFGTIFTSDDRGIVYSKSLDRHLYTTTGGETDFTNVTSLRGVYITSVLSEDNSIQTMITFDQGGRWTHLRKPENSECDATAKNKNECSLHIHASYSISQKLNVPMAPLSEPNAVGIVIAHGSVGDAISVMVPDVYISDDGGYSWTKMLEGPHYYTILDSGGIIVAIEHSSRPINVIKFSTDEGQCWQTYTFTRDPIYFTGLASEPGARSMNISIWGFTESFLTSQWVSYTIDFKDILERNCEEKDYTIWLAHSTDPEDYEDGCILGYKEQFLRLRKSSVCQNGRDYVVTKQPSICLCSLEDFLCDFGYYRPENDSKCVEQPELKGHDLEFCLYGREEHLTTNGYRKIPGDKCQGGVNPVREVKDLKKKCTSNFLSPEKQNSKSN
Procedure: Surface plasmon resonance (SPR) measurements were performed on a Biacore T200 instrument equipped with two separate CM7 sensor chips, one with about 20,000 response units (RU) and another with about 27,000 RU of hsortilin covalently immobilized. […] For all other SPR injections, regeneration consisted of injections of running buffer alone. GE BIAcore T200 evaluation software version 3.0 (BIAevaluate) was used to analyze and export results. […] PIP3 containing nanodiscs were flowed at 2:1 dilutions to obtain kinetic data fitted using about 27,000 RU CM7 surface. Kinetic fit generated with BIAevaluate and local Rmax using Langmuir 1:1 binding model exported from BIAevaluate to Microsoft Excel 2016 with fit indicated by the black line.

PCSK9 = test: Cellular PCSK9 by immunoblot in McA cells; assay type: cell-based, rat; details: 10 μM, 18 h, 1% BSA/DMEM
Procedure: McA cells were incubated in 1% BSA/DMEM with DMSO, 541 (10 μM) or 984 (10 μM) for 18 h. Cellular proteins were extracted and analyzed by IB for LDLR (LS-C146979, 1:2000) (FIG. 5A) or PCSK9 (Ab125251, 1:2000) (FIG. 5B) using HRP-linked secondary antibody and ECL detection. Loading controls included β-ACTIN (Rockland ph600-401-886) and GAPDH (cb1001mAb (6C5). Band intensities were measured using ChemiDocXRS+ system and evaluated using ImageLab 5.1 software (BioRad). Results are average of triplicates ±S.D. PCSK9 is a known ligand for sortilin where sortilin acts as a chaperone for PCSK9 secretion.

hsortilin [2] = target: T2, hsortilin (Homo sapiens, UniProt Q99523); test: SPR binding of 541 and 984 to hsortilin (Example 4)
T2 sequence (Q99523 78-831): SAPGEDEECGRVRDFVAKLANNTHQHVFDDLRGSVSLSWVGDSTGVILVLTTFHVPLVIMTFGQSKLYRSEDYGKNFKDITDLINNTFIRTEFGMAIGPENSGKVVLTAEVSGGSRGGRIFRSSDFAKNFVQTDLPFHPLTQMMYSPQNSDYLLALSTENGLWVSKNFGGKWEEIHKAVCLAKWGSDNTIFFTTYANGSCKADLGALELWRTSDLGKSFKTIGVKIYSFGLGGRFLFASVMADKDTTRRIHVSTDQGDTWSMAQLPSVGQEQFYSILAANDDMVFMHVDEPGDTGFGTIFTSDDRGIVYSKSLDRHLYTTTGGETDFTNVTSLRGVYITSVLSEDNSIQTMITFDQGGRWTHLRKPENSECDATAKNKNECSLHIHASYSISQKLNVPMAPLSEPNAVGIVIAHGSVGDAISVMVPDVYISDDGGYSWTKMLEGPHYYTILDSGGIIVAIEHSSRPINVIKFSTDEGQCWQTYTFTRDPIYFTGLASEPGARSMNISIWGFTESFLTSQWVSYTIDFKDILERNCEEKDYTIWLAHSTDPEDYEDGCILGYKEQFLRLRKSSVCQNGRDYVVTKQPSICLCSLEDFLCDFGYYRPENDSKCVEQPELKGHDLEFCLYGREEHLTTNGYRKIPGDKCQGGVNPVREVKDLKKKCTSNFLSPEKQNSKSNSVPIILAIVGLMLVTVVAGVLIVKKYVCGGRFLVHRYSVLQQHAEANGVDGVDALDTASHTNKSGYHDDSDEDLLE
Procedure: Due to inherent fluorescence of 541 small molecule, thermophoresis was performed in two different buffer conditions (PBS n=3 and MST n=2) and at two sets of concentration ranges. […] SPR indicates a high and low affinity binding site of cpd984 to human sortilin of hsortilin with Kd of about 200 μM and about 20 nM.

CC(NC(=O)c1ccccc1NCC(=O)O)c1ccccc1 (centres unmarked) [cpd541]
LDH release / toxicity (McA cells): non-toxic
effect on NT binding to hsortilin by SPR (hsortilin [1]): competes for NT binding
effect on cellular PCSK9 (PCSK9): no biological difference
pKd (hsortilin [2]; two trials): 5.12

CN1CCC[C@H]1C(=O)Nc1cccc(NC(=O)CCc2ccccc2)c1 [cpd984, (2S)-1-methyl-N-{3-[(3-phenylpropanoyl)-amino]phenyl} pyrrolidine-2-carboxamide]
LDH release / toxicity (McA cells): no significant release of LDH
LDH release / toxicity (McA cells; listed as 984): non-toxic
effect on NT binding to hsortilin by SPR (hsortilin [1]): enhances NT binding
increase of binding of C-term NT (SITE 1) to hsortilin when incubated with 984 (hsortilin [1]): 100 fold
effect on cellular PCSK9 (PCSK9): accumulation of cellular PCSK9
pKd (hsortilin [2]; high affinity binding site): ~7.70
pKd (hsortilin [2]; low affinity binding site): ~3.70
